# In patent US20060003942A1, “Combinations for HCV treatment” (priority 2003, published 2006):
# Where two headings read alike, the source gives them in different places.
# Legend:
# [1] = tested on: VX-950 metabolism in human hepatic microsomes; assay type: in vitro ADME; conditions: 0.25 μM VX-950, 0.25 mg microsomal protein/mL, 2 minutes
SMILES,"metabolized in human liver microsomes (1 h, 2 μM) [%]","metabolized in human liver microsomes (1 h, 20 μM) [%]","metabolized in human liver microsomes (2 h, 2 μM) [%]","metabolized in human liver microsomes (2 h, 20 μM) [%]",effect of ritonavir on VX-950 metabolism ([1]; ritonavir 10 to 100 μM),effect of ritonavir on VX-950 metabolism ([1]; ritonavir up to 3 μM)
CCC[C@H](NC(=O)[C@@H]1[C@H]2CCC[C@H]2CN1C(=O)[C@@H](NC(=O)[C@@H](NC(=O)c1cnccn1)C1CCCCC1)C(C)(C)C)C(=O)C(=O)NC1CC1 [VX-950],73,7,86,21,,
CC(C)c1nc(CN(C)C(=O)N[C@H](C(=O)N[C@@H](Cc2ccccc2)C[C@H](O)[C@H](Cc2ccccc2)NC(=O)OCc2cncs2)C(C)C)cs1 [ritonavir],,,,,increase in VX-950 metabolism,inhibition of VX-950 metabolism
